In patent US11993785B2, “Immersion deposition methods and compositions for use in the same” (Wake Forest University Health Sciences, priority 2018, dated 2024):

Test system: primary sarcoma organoids
Experiment: CELLTITER-GLO 3D ATP assay of drug treated primary sarcoma organoids
Assay type: cell-based
Conditions: 3 days, after 7 days organoid culture
Protocol: The organoids were made using an immersion printing technique using a gelatin composition having a gelatin concentration of 10 mg/mL. To prepare the gelatin composition, gelatin was allowed to completely dissolve, and then the composition was cooled at 4° C. prior to use. The organoids were printed with a new bioprinter, BIO X™ available from CELLINK®, using a new type of printhead, a syringe pump printhead.
The resulting organoids were cultured for 7 days, and then subjected to various drug conditions in culture for 3 more days. Table 1 details the drug and concentration added to the standard culture media (high glucose DMEM supplemented with 10% fetal bovine serum, 1% L-glutamine, 1% penicillin/streptomycin). The organoids were then measured for viability using the CELLTITER-GLO® 3D ATP assay to measure ATP content via luminescence. The resulting signals, shown in FIG. 5, show a trend of organoid viability decreasing as drug concentration increased. Live/dead imaging corroborates the findings of the ATP assay.

COc1cccc2c1C(=O)c1c(O)c3c(c(O)c1C2=O)C[C@@](O)(C(=O)CO)C[C@@H]3O[C@H]1C[C@H](N)[C@H](O)[C@H](C)O1 [Doxorubicin]
AVG Signal (lum), ATP assay (1 nM drug in culture media): 5.13E+06 lum
AVG Signal (lum), ATP assay (100 nM drug in culture media): 2.62E+06 lum
AVG Signal (lum), ATP assay (10 μM drug in culture media): 1.12E+06 lum

Cc1ccc(NC(=O)c2ccc(CN3CCN(C)CC3)cc2)cc1Nc1nccc(-c2cccnc2)n1 [Imatinib]
AVG Signal (lum), ATP assay (5 μM drug in culture media): 9.16E+06 lum
AVG Signal (lum), ATP assay (50 μM drug in culture media): 6.56E+06 lum
AVG Signal (lum), ATP assay (500 μM drug in culture media): 1.88E+04 lum
